According to US7335814B2, “Transgenic cells expressing glucosyltransferase nucleic acids” (The University of York, priority 2000, dated 2008):

What was measured:
Type in all cases: biochemical
recombinant GTase A41 = biological target: T1, recombinant GTase A41 (Arabidopsis thaliana, UniProt Q5XF20); assay: Specific activity of recombinant GTase producing glucose ester against lignin precursors (HPLC); details: 5 mM UDPG, 0.2 μg GTase, 200 μl, 20° C., 30 min
T1 construct: made in house; host or cells: E. coli
T1 sequence (Q5XF20 7-490): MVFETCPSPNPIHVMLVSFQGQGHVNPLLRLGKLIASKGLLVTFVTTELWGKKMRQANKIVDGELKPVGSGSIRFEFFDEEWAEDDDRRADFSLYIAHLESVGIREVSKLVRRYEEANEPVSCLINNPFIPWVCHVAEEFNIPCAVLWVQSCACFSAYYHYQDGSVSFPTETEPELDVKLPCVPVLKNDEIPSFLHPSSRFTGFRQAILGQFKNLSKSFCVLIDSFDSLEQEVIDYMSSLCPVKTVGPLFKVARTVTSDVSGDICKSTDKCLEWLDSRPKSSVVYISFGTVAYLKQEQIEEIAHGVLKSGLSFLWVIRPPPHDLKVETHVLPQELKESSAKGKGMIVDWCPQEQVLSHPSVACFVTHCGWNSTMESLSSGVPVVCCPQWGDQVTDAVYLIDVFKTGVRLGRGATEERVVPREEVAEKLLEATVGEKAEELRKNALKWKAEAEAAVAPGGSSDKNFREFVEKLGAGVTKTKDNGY

recombinant GTase A320 = biological target: T2, recombinant GTase A320 (Arabidopsis thaliana, UniProt Q9LVF0); assay: as above; details: 5 mM UDPG, 0.2 μg GTase, 200 μl, 20° C., 30 min
T2 construct: made in house; host or cells: E. coli
T2 sequence (Q9LVF0 1-496): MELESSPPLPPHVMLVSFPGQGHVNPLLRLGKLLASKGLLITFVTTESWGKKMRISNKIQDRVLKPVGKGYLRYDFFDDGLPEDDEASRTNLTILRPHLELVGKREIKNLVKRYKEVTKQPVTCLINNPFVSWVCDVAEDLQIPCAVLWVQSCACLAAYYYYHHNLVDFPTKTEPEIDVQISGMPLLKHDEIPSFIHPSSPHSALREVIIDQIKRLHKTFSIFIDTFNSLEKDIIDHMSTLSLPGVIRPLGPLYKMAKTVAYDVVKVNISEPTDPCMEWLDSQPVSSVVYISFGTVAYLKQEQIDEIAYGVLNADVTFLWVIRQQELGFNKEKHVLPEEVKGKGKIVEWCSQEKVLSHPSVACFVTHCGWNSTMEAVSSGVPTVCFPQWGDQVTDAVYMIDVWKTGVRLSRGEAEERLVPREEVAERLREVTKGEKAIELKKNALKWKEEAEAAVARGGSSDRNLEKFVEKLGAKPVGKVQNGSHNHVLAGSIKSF

recombinant GTase A42 = biological target: T3, recombinant GTase A42 (Arabidopsis thaliana, UniProt O23401); assay: as above; details: 0.5 ml of potential substrates, 5 mM UDPG, 0.2 μg GTase, 200 μl, 20° C., 30 min
T3 construct: made in house; host or cells: E. coli
T3 sequence (O23401 1-479): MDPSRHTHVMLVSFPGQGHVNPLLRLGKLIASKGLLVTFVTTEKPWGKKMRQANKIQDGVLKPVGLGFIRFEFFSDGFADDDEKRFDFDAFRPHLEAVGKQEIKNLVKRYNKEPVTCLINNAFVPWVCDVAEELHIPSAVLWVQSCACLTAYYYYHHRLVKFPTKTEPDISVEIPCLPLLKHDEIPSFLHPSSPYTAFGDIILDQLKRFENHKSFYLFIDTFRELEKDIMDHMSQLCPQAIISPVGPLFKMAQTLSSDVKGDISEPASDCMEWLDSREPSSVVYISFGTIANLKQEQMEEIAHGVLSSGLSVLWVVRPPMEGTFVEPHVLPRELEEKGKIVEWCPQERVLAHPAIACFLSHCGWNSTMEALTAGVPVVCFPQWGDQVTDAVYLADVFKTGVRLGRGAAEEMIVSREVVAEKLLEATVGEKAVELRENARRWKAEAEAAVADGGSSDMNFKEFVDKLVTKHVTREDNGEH

recombinant GTase A119 = biological target: T4, recombinant GTase A119 (Arabidopsis thaliana, UniProt Q9LVR1); assay: Specific activity of recombinant GTase producing O-glucosides against lignin precursors (HPLC); details: 30° C.; ND = not detected
T4 construct: made in house; host or cells: E. coli
T4 sequence (Q9LVR1 1-481): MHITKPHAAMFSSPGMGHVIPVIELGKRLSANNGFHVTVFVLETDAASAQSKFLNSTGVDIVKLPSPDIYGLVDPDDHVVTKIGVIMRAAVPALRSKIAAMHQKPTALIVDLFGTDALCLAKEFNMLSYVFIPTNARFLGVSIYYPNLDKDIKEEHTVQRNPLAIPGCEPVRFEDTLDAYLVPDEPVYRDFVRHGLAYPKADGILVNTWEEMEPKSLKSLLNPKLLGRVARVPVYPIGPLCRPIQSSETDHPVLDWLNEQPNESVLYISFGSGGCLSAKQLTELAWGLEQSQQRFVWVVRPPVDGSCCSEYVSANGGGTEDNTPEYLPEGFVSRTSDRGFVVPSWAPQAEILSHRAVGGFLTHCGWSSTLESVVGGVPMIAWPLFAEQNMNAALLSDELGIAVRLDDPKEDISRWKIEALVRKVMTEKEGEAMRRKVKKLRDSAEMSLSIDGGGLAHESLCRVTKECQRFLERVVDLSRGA

UGT71C1 = biological target: T5, UGT71C1 (Arabidopsis thaliana, UniProt O82381); assay: UGT71C1 glucosyltransferase specific activity towards phenolic compounds (reverse-phase HPLC); details: 1 mM phenolic compound, 5 mM UDP-glucose, 50 mM TRIS-HCl pH 7.0, 30° C., 30 min; mean of three replicates ± standard deviation
T5 construct: GST (N); made in house; host or cells: E. coli
T5 sequence (O82381 1-481): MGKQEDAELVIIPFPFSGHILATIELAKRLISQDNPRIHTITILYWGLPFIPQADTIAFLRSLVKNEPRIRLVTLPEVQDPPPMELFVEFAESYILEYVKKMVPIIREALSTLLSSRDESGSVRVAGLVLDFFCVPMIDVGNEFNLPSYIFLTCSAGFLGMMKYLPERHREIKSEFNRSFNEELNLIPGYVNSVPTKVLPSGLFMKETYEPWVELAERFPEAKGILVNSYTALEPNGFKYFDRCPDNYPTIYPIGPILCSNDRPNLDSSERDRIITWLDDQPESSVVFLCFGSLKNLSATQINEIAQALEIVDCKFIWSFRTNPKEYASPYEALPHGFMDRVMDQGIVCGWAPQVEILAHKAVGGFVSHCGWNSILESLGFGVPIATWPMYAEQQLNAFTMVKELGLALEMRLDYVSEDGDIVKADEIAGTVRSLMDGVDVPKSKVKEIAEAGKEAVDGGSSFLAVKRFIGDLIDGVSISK

COc1cc(/C=C/C(=O)O)ccc1O [Ferulic acid, ferulic acid]
Specific activity of A41 (substrate converted to glucose ester) (recombinant GTase A41): 6.64 nkat/mg
Specific activity of A320 (substrate converted to glucose ester) (recombinant GTase A320): 0.54 nkat/mg
Specific activity of A42 (substrate converted to glucose ester) (recombinant GTase A42): 15.63 nkat/mg
Specific activity of A119 (substrate converted to 4-O-glucoside) (recombinant GTase A119): 14.48 nkat/mg
Specific activity (UGT71C1) (UGT71C1): 0 nkat/mg

O=C(O)/C=C/c1ccc(O)cc1 [p-coumaric acid]
Specific activity of A41 (substrate converted to glucose ester) (recombinant GTase A41): 13.53 nkat/mg
Specific activity of A320 (substrate converted to glucose ester) (recombinant GTase A320): 0.05 nkat/mg
Specific activity of A42 (substrate converted to glucose ester) (recombinant GTase A42): 4.69 nkat/mg
Specific activity of A119 (substrate converted to 4-O-glucoside) (recombinant GTase A119): 0.02 nkat/mg
Specific activity (UGT71C1) (UGT71C1): 0 nkat/mg
